Measurements as given in PubChem BioAssay AID212 (DTP/NCI, 2004).
Values joined by “and” are separate entries in the source; they are usually repeats but may differ in a detail not shown here. Equal values may be shown once. Inconclusive results are not listed.

Tested on: BDF1 mice, colon carcinoma 38 sc, T/C %
Experiment: NCI In Vivo Anticancer Drug Screen. Data for tumor model Colon Carcinoma 38 (subcutaneous) in B6D2F1 (BDF1) mice
Details: endpoint: median tumor weight (est.), higher = larger tumour
Method in brief: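 Ratio of survival or tumor size, compound-treated animals relative to vehicle controls, in tumor-bearing mice.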

[1] = dose: 25.0 mg/kg/injection, schedule: Q07DX002 (ip), vehicle: Klucel (hydroxypropylcellulose) (HPC)
[2] = dose: 50.0 mg/kg/injection, schedule: Q07DX002 (ip), vehicle: Klucel (hydroxypropylcellulose) (HPC)
[3] = dose: 100.0 mg/kg/injection, schedule: Q07DX002 (ip), vehicle: Klucel (hydroxypropylcellulose) (HPC)
[4] = dose: 200.0 mg/kg/injection, schedule: Q07DX002 (ip), vehicle: Klucel (hydroxypropylcellulose) (HPC)
[5] = dose: 400.0 mg/kg/injection, schedule: Q07DX002 (ip), vehicle: Klucel (hydroxypropylcellulose) (HPC)
[6] = dose: 800.0 mg/kg/injection, schedule: Q07DX002 (ip), vehicle: Klucel (hydroxypropylcellulose) (HPC)
[7] = dose: 50.0 mg/kg/injection, schedule: Q07DX002 (ip), vehicle: saline with Tween-80
[8] = dose: 100.0 mg/kg/injection, schedule: Q07DX002 (ip), vehicle: saline with Tween-80
[9] = dose: 200.0 mg/kg/injection, schedule: Q07DX002 (ip), vehicle: saline with Tween-80
[10] = dose: 12.5 mg/kg/injection, schedule: Q07DX002 (ip), vehicle: saline with Tween-80
[11] = dose: 25.0 mg/kg/injection, schedule: Q07DX002 (ip), vehicle: saline with Tween-80

**Q.** Which results are given for CC1CN1C(=O)NCCCCCCNC(=O)N1CC1C (configuration not stated)?
**A.** T/C (dose: 5.0 mg/kg/injection, schedule: Q07DX003 (ip), vehicle: Klucel (hydroxypropylcellulose) (HPC)): 73 % of control and 90 % of control; T/C (dose: 20.0 mg/kg/injection, schedule: Q07DX003 (ip), vehicle: Klucel (hydroxypropylcellulose) (HPC)): 15 % of control and 34 % of control; T/C (dose: 40.0 mg/kg/injection, schedule: Q07DX003 (ip), vehicle: Klucel (hydroxypropylcellulose) (HPC)): 34 % of control

**Q.** How did the T/C (dose: 800.0 mg/kg/injection, schedule: Q07DX002 (ip), vehicle: saline) turn out when N=C(N)SCc1cccc2c(=O)cc(-c3ccccc3)oc12 was run?
**A.** The T/C was 52 % of control and 69 % of control.

**Q.** Cc1ccc(C2NC(=S)N3C(c4ccc(C)cc4)NC(=S)N23)cc1 (configuration not stated) was tested. Which T/C [1] did it give?
**A.** Its T/C is 94 % of control.

**Q.** And the T/C [2]?
**A.** Its T/C is 79 % of control.

**Q.** What about the T/C [3] of the same compound?
**A.** Its T/C is 83 % of control.

**Q.** And the T/C [4]?
**A.** Its T/C is 88 % of control.

**Q.** And the T/C [5]?
**A.** The T/C was 89 % of control.

**Q.** What about the T/C [6] of the same compound?
**A.** The T/C was 60 % of control.

**Q.** How did the T/C (dose: 12.5 mg/kg/injection, schedule: Q07DX002 (ip), vehicle: suspension in saline) turn out when [Cl][Pt+2][Cl].[NH-]CC1(C[NH-])CCC1 was run?
**A.** The T/C was 50 % of control.

**Q.** [I][Hg][CH2]C1COC([CH2][Hg][I])CO1 (configuration not stated) was tested. Which T/C (dose: 6.25 mg/kg/injection, schedule: Q07DX002 (ip), vehicle: suspension in saline) did it give?
**A.** Its T/C is 67 % of control.

**Q.** What about the T/C (dose: 50.0 mg/kg/injection, schedule: Q07DX002 (ip), vehicle: suspension in saline) of the same compound?
**A.** Its T/C is 120 % of control.

**Q.** Which results are given for O=C(O)C1(NO)CCCCC1?
**A.** T/C [1]: 56 % of control; T/C [2]: 86 % of control and 105 % of control; T/C [5]: 118 % of control and 94 % of control; T/C [6]: 112 % of control and 103 % of control

**Q.** Which T/C [7] does the source give for CS(=O)(=O)Nc1ccc(C(=O)CCN2CCCCCC2)cc1 here?
**A.** Its T/C is 96 % of control.

**Q.** What about the T/C [8] of the same compound?
**A.** Its T/C is 86 % of control.

**Q.** And the T/C [9]?
**A.** Its T/C is 95 % of control.

**Q.** CC(=O)OC1=NC(C)c2c1cc(OC(C)=O)[nH]c2=O (configuration not stated) was tested. Which T/C (dose: 6.25 mg/kg/injection, schedule: Q07DX002 (ip), vehicle: Klucel (hydroxypropylcellulose) (HPC)) did it give?
**A.** The T/C was 124 % of control.

**Q.** And the T/C (dose: 12.5 mg/kg/injection, schedule: Q07DX002 (ip), vehicle: Klucel (hydroxypropylcellulose) (HPC))?
**A.** Its T/C is 70 % of control and 85 % of control.

**Q.** And the T/C [4]?
**A.** The T/C was 100 % of control.

**Q.** Which results are given for C#CCN(Cc1ccc2nc(N)[nH]c(=O)c2c1)c1ccc(C(=O)NC(CCC(=O)O)C(=O)O)cc1 (configuration not stated)?
**A.** T/C (dose: 50.0 mg/kg/injection, schedule: Q07DX002 (ip), vehicle: sodium bicarbonate): 60 % of control; T/C (dose: 100.0 mg/kg/injection, schedule: Q07DX002 (ip), vehicle: sodium bicarbonate): 70 % of control; T/C (dose: 200.0 mg/kg/injection, schedule: Q07DX002 (ip), vehicle: sodium bicarbonate): 49 % of control; T/C (dose: 400.0 mg/kg/injection, schedule: Q07DX002 (ip), vehicle: sodium bicarbonate): 51 % of control

**Q.** What does the source list for O=C([CH-]C(=O)C(F)(F)F)c1ccccc1.O=C([CH-]C(=O)C(F)(F)F)c1ccccc1.O=C([CH-]C(=O)C(F)(F)F)c1ccccc1.O=C([CH-]C(=O)C(F)(F)F)c1ccccc1.[Eu+3].c1ccncc1?
**A.** T/C [1]: 91 % of control; T/C [2]: 88 % of control; T/C [3]: 76 % of control and 82 % of control; T/C [4]: 79 % of control and 88 % of control

**Q.** OCC1OC(n2cnc3cc(Cl)c(Cl)cc32)C(O)C1O (configuration not stated) was tested. Which T/C [10] did it give?
**A.** Its T/C is 101 % of control.

**Q.** And the T/C [11]?
**A.** Its T/C is 98 % of control.

**Q.** And the T/C [7]?
**A.** Its T/C is 105 % of control.

**Q.** And the T/C [8]?
**A.** Its T/C is 98 % of control.

**Q.** What does the source list for COc1cc(C)c(C2NC(=O)c3ccccc3N2)cc1C (configuration not stated)?
**A.** T/C [2]: 121 % of control; T/C [3]: 78 % of control; T/C [5]: 117 % of control; T/C [6]: 108 % of control

**Q.** How did the T/C [10] turn out when N#CC(=C1C=CC(=NO)C=C1)c1ccc(Cl)cc1 was run?
**A.** Its T/C is 72 % of control.

**Q.** And the T/C [11]?
**A.** Its T/C is 100 % of control.

**Q.** What about the T/C [8] of the same compound?
**A.** Its T/C is 103 % of control.

**Q.** And the T/C (dose: 400.0 mg/kg/injection, schedule: Q07DX002 (ip), vehicle: saline with Tween-80)?
**A.** Its T/C is 46 % of control.

**Q.** What does the source list for CCCCOCN(COCCCC)C12CC3CC(CC(C3)C1)C2?
**A.** T/C [11]: 93 % of control; T/C [7]: 73 % of control; T/C [8]: 120 % of control; T/C [9]: 69 % of control
